Measured values published in PMC12757379 (Frontiers in Pharmacology, 2025).
pKd: −log10 of the molar value.

Key:
[1] = biological target: T1, farnesoid X receptor (FXR) (Homo sapiens, UniProt Q96RI1); assay: SPR (Biacore T200); also frontal affinity chromatography KD […]; type: binding
T1 construct: gene NR1H4; human FXR protein (His Tag; Cat: 17624-H07E)
T1 sequence (Q96RI1 1-486): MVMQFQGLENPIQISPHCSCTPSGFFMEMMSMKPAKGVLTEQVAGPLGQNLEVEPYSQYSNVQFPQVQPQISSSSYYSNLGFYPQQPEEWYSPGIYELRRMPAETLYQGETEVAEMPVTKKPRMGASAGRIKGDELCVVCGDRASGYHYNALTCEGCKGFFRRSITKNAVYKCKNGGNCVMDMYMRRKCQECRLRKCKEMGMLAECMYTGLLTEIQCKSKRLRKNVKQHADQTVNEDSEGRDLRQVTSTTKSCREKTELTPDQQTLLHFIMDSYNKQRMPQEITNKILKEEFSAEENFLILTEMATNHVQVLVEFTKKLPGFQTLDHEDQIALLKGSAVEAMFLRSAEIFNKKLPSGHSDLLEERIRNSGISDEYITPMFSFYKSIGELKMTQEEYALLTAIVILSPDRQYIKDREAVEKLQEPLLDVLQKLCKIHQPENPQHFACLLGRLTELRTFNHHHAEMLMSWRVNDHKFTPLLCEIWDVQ

[2] = biological target: T1, farnesoid X receptor (FXR); assay: retention of standard on immobilized-FXR affinity column ([…]D biochromatography); type: binding

Structure (SMILES)	pKd [1]	retention of standard on immobilized-FXR affinity column (2D biochromatography) [2]
COc1cc(O)c2c(c1)C(=O)c1cc(C)cc(O)c1C2=O [physcion]	4.52	
O=C1c2cccc(O)c2C(=O)c2c(O)cc(CO)cc21 [aloe-emodin]		emodin, physcion, aloe-emodin, and TSG exhibited distinct retentions, thereby confirming their strong binding affinities for FXR
